From ChEMBL document CHEMBL1201862, “PubChem BioAssay data set” (2004) come the findings set out here.

Test systems include EKVX; HCT-116; HCT-15; HOP-62; NCI-H226; NCI-H460; OVCAR-3; SF-268; SF-295; SK-MEL-28; SK-MEL-2; SK-MEL-5; SN12C; TK-10; U-251; MOLT-4.
Common to all, as to assay: inhibition of tumour cell growth, NCI panel, 48 h

Molecules are shown by their SMILES.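 Protocol summary: plate cells (96-well), add compound at 5 concentrations, incubate 48 h, interpolate endpoints linearly. GI50 is the concentration that inhibits growth by half.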 The source made the active and inactive calls. Cut-off read from the data, not from the text of the source: active = GI50 up to about 1.1 µM and inactive = higher. A value given as a limit tells only on which side of the number the result lay.

`Nc1nc(O)c2c(ncn2CC(O)CO)n1` (centres undefined): the GI50 is > 100 µM (inactive) with EKVX; > 100 µM (inactive) in the assay on HCT-116; above 100 µM in the assay with HCT-15; > 100 µM (inactive) in the assay on HOP-62; > 100 µM (inactive) in the assay with NCI-H226; > 100 µM (inactive) in the assay on NCI-H460. Besides, the GI50 in the assay on OVCAR-3, with SF-268, with SF-295, in the assay with SK-MEL-28, in the assay with SK-MEL-2 and in the assay with SK-MEL-5 was > 100 µM (inactive) each time. The GI50 with SN12C, with TK-10 and in the assay on U-251 was > 100 µM (inactive) throughout.

As for `CCN(CC)C(=O)N1CCN(C=S)CC1`, the GI50 in the assay with EKVX was > 100 µM (inactive); in the assay with HCT-116, > 100 µM (inactive); in the assay on HCT-15, above 100 µM; in the assay on HOP-62, > 100 µM (inactive); in the assay on MOLT-4, > 100 µM (inactive); with NCI-H226, > 100 µM (inactive). Besides, the GI50 in the assay on NCI-H460, in the assay with OVCAR-3, with SF-268, in the assay on SK-MEL-28, in the assay with SK-MEL-2 and in the assay on SK-MEL-5 was > 100 µM (inactive) each time. In addition, the GI50 in the assay with SN12C, in the assay with TK-10 and in the assay with U-251 was > 100 µM (inactive) in each case.

On to `Cn1nc2ccc3nccc(NCCNCCO)c3c2n1`, for which the GI50 with HCT-116 was 18.2 µM (inactive); in the assay with HCT-15, 44.3 µM; with HOP-62, 47.4 µM (inactive); with MOLT-4, 5.56 µM (inactive); in the assay with NCI-H226, 41.2 µM (inactive); in the assay on NCI-H460 it was 18.1 µM (inactive). Besides, the GI50 with OVCAR-3 is 38.3 µM (inactive); in the assay with SF-268 it was 27.4 µM (inactive); in the assay with SF-295, 39.3 µM (inactive); in the assay with SK-MEL-28, 39.4 µM (inactive); in the assay on SK-MEL-5, 56.5 µM (inactive); in the assay with SN12C, 32.8 µM (inactive). For the same molecule, the GI50 in the assay with TK-10 is 45.8 µM (inactive); in the assay with U-251, 37 µM (inactive).

Regarding `N#Cc1cc([N+](=O)[O-])ccc1NC(=O)C(=O)Nn1c(S)nc2ccccc2c1=O`, the GI50 was > 100 µM (inactive) in the assay on EKVX; > 100 µM (inactive) in the assay with HCT-116; above 100 µM with HCT-15; > 100 µM (inactive) in the assay with HOP-62; > 100 µM (inactive) with NCI-H226; > 100 µM (inactive) in the assay with NCI-H460. Also, the GI50 in the assay on OVCAR-3, with SF-268, with SF-295, in the assay on SK-MEL-28, with SK-MEL-5 and with SN12C was > 100 µM (inactive) throughout. The GI50 in the assay with TK-10 and in the assay with U-251 was > 100 µM (inactive) throughout.

As to `CC(=O)N1CCC2(C=Nc3ccccc32)CC1`, the GI50 is > 100 µM (inactive) in the assay on EKVX; > 100 µM (inactive) in the assay on HCT-116; above 100 µM in the assay with HCT-15; > 100 µM (inactive) in the assay with HOP-62; > 100 µM (inactive) in the assay with MOLT-4; > 100 µM (inactive) with NCI-H460. Moreover, the GI50 with OVCAR-3, in the assay on SF-295, in the assay on SK-MEL-28, with SK-MEL-2, in the assay with SK-MEL-5 and in the assay on TK-10 was > 100 µM (inactive) throughout. For the same molecule, in the assay with U-251, the GI50 was > 100 µM (inactive).

For `O=[N+]([O-])c1ccc(-c2ccc(C3=Nn4c(CNc5ccccc5Cl)nnc4SC3)o2)cc1`, the GI50 in the assay with HCT-116 was > 100 µM (inactive); with HCT-15, 12.9 µM; in the assay on HOP-62, > 100 µM (inactive); with MOLT-4, > 100 µM (inactive); in the assay on NCI-H226 it was > 100 µM (inactive); in the assay on NCI-H460, > 100 µM (inactive). Further, the GI50 with OVCAR-3, with SF-268, with SF-295, in the assay on SK-MEL-28, in the assay with SK-MEL-2 and in the assay with SN12C was > 100 µM (inactive) throughout. Further, the GI50 in the assay with TK-10 and with U-251 was > 100 µM (inactive) each time.

As to `COc1ccc(NC(=O)C2C(=O)N(c3ccc(OC)cc3)C(=O)/C2=N/O)cc1` (centres undefined), the GI50 with EKVX is 32.2 µM (inactive); with HCT-116 it was 21.6 µM (inactive); in the assay with HCT-15, above 100 µM; in the assay with HOP-62, 23.5 µM (inactive); with MOLT-4 it was > 100 µM (inactive); in the assay on NCI-H226 it was 23.8 µM (inactive). For the same molecule, the GI50 is 21.9 µM (inactive) in the assay with NCI-H460; 24.7 µM (inactive) in the assay on OVCAR-3; 24.8 µM (inactive) in the assay with SF-268; 26.4 µM (inactive) in the assay with SF-295; 37.8 µM (inactive) in the assay with SK-MEL-28; 32.2 µM (inactive) in the assay on SK-MEL-2. Besides, the GI50 in the assay with SN12C was 26.4 µM (inactive); with TK-10 it was 23.9 µM (inactive); in the assay on U-251, 22.3 µM (inactive).

Turning to `c1ccc2c(c1)N=C(c1cccc3ccccc13)CC(c1ccc3c(c1)OCO3)S2` (centres undefined), the GI50 in the assay with EKVX, in the assay with HCT-116, in the assay on HOP-62, in the assay with MOLT-4, in the assay with NCI-H226 and in the assay with NCI-H460 was > 100 µM (inactive) throughout. For the same molecule, the GI50 is > 100 µM (inactive) in the assay with OVCAR-3; > 100 µM (inactive) in the assay on SF-268; 53.6 µM (inactive) in the assay with SF-295; > 10 µM (inactive) in the assay on SK-MEL-28; > 100 µM (inactive) in the assay with SK-MEL-2; > 100 µM (inactive) in the assay with SK-MEL-5. Further, the results for the GI50 in the assay with SN12C, in the assay with TK-10 and in the assay on U-251 were > 100 µM (inactive), > 100 µM (inactive) and 73.3 µM (inactive), respectively.

On to `C=CC(Br)(CBr)CCC(Br)C(C)(C)Br` (centres undefined), for which the GI50 is 14.5 µM (inactive) in the assay on HCT-116; 16.5 µM in the assay on HCT-15; 21 µM (inactive) in the assay on HOP-62; 9.51 µM (inactive) in the assay with MOLT-4; 18.1 µM (inactive) in the assay on NCI-H226; 10.4 µM (inactive) with NCI-H460. The GI50 in the assay on SF-268 was 17.1 µM (inactive); in the assay on SF-295 it was 4.42 µM (inactive); in the assay on SK-MEL-28, 15.9 µM (inactive); in the assay on SK-MEL-2, 13.6 µM (inactive); with SK-MEL-5, 14.5 µM (inactive); in the assay with SN12C it was 15.6 µM (inactive). For the same molecule, the GI50 with TK-10 was 16.4 µM (inactive); in the assay on U-251 it was 14.2 µM (inactive).

Take `[O-][S+](c1ccc(O)cc1)c1ccc(O)cc1`: the GI50 is > 100 µM (inactive) in the assay with EKVX; > 100 µM (inactive) with HCT-116; above 100 µM in the assay on HCT-15; > 100 µM (inactive) in the assay on HOP-62; > 100 µM (inactive) with MOLT-4; > 100 µM (inactive) with NCI-H226. In addition, the GI50 in the assay on NCI-H460, in the assay on OVCAR-3, in the assay on SF-268, in the assay on SF-295, in the assay with SK-MEL-28 and in the assay on SK-MEL-2 was > 100 µM (inactive) throughout. For the same molecule, the GI50 in the assay with SK-MEL-5, with TK-10 and in the assay on U-251 was > 100 µM (inactive) throughout.
